Assay [1] addresses T1, LRRK2 WT enzyme (Homo sapiens, UniProt Q5S007).
T1 construct: purchased Thermo Fisher Scientific PR8604B
Put plainly: LRRK2 wild type kinase inhibition assay (ADP-Glo). It counts as biochemical. The conditions noted are these: Table 2, class symbols; read-out: Enzyme activity against LRRK2 WT (IC50). Here is the method:
(§1) IC50 experiments were performed for inventive compounds. An exemplary kit to perform this assay includes the Adapta™ Screening Protocol and Assay Conditions by Invitrogen™ (Fisher Scientific™, Catalog No. PV5099).
(§2) All LRRK2 kinase inhibition assays were conducted by using Promega ADP-Glo™ Kinase assay systems (Catalog number; V4475). Inhibitors were tested with 12 concentrations over a 5-fold serial dilution series (50 μM, 10 μM, 2 μM, 400 nM, 80 nM, 16 nM, 3.2 nM, […]) and PF06447475 as positive control. For the LRRK2 wild type (WT) enzyme assay, each inhibitor was mixed with 0.2 μg/μL of substrate (LRRKtide, SignalChem, Richmond, BC, Canada), […] (Invitrogen™, Carlsbad, CA), 24 ng of LRRK2 WT enzyme (Thermo Fisher Scientific, PR8604B) in 384-well plate. For LRRK G2019S, each compound was mixed with 0.2 μg/μL of substrate, […], 16 ng of LRRK2 G2019S enzyme (SignalChem, L10-12GG). All samples were diluted with kinase reaction buffer (40 mmol/L TrisHCl, 10 mmol/L MgCl2, and 0.1 μg/μL BSA (bovine serum albumin)). After 2 hours at 25° C., ADP-Glo™ (Promega, Madison, WI) reagent was added and the samples were incubated at rt for 40 min. Finally, Kinase Detection Reagent was added and the resulting mixtures were allowed to react at rt for 10 min. Luminescence signals were detected using Synergy™ Neo2 microplate reader (Bio-Tek). Compound inhibition curve was fitted using Graphpad Prism 8.0 software.

Assay [2] concerns the target DDR1 (Homo sapiens, UniProt Q08345). As to the kind of experiment: KinomeScan profiling. Type of assay: binding. Conditions: DDR1, 1 μM; read-out: % control. The gist of the method: (§3)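 Normalised RLU (% control; DMSO 100%, positive control 0%) was measured for compounds dosed at 1 μM over 468 kinases, active cut-off <35%.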
Assay [3] deals with EGFR(L747-T751del, Sins) (Homo sapiens, UniProt P00533, DEL747-750/T751S). Put plainly: KinomeScan profiling. Type of assay: binding. Conditions: read-out: % control. A digest of the protocol:
as §3

For assay [4], the target named is MST3 (Homo sapiens, UniProt Q9Y6E0). As to the kind of experiment: KinomeScan profiling. Conditions: MST3, 1 μM; read-out: % control. It counts as binding. A digest of the protocol:
as §3

Assay [5] concerns the target T2, TEC (Homo sapiens, UniProt P42680).
T2 sequence (P42680 1-631): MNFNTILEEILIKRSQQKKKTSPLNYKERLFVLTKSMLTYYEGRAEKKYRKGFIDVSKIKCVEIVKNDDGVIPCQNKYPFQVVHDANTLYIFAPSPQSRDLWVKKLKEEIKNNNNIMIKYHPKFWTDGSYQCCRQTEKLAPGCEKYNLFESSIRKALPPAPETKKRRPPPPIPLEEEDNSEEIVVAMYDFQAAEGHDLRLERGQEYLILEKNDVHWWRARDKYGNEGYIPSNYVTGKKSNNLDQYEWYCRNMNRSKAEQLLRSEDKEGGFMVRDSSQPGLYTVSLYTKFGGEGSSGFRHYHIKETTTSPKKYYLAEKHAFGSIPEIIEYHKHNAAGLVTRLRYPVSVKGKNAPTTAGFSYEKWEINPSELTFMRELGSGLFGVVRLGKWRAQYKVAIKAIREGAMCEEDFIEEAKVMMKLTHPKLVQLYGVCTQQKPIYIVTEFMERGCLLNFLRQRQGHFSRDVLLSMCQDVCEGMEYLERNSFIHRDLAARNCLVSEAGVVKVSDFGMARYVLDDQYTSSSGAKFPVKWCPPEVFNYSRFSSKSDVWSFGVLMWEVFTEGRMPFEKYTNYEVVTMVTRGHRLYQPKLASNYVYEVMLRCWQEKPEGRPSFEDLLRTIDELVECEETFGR
As to the kind of experiment: KinomeScan profiling. The conditions noted are these: read-out: % control. It counts as binding. The gist of the method: as §3

Assay [6] deals with TRKB (Homo sapiens, UniProt Q16620). Put plainly: KinomeScan profiling. Type of assay: binding. Conditions: read-out: % control. The gist of the method: as §3
TRKB, sequence (Q16620 32-822): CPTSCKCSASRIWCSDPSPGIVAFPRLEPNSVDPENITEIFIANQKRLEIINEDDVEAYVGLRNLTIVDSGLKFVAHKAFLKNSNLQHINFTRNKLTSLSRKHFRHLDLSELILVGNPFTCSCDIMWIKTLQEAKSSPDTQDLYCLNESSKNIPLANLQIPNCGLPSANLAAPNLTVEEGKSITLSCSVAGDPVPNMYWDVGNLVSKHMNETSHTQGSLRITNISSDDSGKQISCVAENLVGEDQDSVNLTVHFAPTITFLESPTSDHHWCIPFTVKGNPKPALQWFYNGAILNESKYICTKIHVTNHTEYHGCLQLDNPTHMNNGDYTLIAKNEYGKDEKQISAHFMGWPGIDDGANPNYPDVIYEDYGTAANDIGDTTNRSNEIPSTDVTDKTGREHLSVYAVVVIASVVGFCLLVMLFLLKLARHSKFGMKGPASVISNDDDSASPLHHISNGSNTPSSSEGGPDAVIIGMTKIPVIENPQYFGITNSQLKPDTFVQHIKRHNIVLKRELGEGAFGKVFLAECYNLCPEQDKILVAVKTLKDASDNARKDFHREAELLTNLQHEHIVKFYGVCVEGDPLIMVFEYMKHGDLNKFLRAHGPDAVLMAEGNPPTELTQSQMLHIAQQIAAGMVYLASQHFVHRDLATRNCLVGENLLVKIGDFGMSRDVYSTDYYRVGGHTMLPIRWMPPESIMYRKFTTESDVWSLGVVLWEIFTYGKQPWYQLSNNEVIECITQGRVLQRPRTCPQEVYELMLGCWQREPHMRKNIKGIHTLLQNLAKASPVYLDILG
For assay [7], the target named is LRRK2(G2019S) (Homo sapiens, UniProt Q5S007, G2019S). As to the kind of experiment: LRRK2 G2019S kinase inhibition assay (ADP-Glo). It counts as biochemical. Also noted: purchased SignalChem L10-12GG. The conditions noted are these: Table 2, class symbols; read-out: Enzyme activity against LRRK2 G2019S (IC50). Here is the method: as §1, §2
LRRK2(G2019S), sequence (Q5S007 970-2527 G2019S limits assumed): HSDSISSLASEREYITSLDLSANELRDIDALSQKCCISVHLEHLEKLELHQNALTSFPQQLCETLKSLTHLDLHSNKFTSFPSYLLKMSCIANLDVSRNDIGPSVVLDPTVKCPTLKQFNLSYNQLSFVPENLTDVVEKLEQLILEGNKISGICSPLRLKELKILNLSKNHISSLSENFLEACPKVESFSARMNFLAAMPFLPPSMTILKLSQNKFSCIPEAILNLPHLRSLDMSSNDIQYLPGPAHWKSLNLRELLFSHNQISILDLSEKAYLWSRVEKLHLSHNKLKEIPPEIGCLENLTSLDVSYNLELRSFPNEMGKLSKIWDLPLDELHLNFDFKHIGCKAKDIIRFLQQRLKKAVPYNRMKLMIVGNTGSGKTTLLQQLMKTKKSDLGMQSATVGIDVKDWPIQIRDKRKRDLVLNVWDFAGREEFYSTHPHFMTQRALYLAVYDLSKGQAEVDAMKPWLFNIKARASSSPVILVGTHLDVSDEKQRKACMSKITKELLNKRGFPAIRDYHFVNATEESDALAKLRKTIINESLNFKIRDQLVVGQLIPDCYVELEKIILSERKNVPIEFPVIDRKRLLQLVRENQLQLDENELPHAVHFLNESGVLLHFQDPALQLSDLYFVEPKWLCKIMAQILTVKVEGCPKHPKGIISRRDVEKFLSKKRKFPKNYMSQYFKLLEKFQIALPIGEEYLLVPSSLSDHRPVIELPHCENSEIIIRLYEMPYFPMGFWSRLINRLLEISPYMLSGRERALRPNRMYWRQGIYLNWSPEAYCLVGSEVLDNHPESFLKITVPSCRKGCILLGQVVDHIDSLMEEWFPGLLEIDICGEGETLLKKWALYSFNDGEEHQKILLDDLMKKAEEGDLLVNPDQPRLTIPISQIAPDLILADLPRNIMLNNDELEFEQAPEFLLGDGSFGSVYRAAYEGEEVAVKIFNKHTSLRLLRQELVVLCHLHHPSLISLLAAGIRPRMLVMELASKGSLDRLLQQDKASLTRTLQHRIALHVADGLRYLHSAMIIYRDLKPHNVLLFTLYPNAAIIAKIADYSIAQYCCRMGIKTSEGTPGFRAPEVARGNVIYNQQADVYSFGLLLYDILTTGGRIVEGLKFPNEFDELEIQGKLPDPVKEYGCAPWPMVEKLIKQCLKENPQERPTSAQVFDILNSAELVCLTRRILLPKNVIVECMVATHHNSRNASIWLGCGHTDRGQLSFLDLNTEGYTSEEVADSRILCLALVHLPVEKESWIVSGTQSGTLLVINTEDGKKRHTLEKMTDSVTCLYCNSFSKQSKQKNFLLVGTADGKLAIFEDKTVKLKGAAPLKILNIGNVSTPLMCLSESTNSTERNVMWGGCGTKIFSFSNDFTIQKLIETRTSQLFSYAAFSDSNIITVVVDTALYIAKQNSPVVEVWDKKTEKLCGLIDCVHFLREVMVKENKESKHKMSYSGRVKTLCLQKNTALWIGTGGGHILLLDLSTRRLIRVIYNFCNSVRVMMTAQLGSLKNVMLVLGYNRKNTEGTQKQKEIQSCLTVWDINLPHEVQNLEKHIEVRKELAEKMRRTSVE
Assay [8] concerns FLT3(ITD). Put plainly: KinomeScan profiling. Type of assay: binding. The conditions noted are these: 1 μM. The gist of the method: as §3
The subject of assay [9] is FLT3(ITD, D835V). Put plainly: KinomeScan profiling. Type of assay: binding. Conditions: 1 μM. The gist of the method: as §3
In assay [10] the test system is FLT3(ITD, F691L). As to the kind of experiment: KinomeScan profiling. Type of assay: binding. Conditions: 1 μM. A digest of the protocol:
as §3

Bounds are passed on as bounds.

MST3, sequence (Q9Y6E0 whole entry): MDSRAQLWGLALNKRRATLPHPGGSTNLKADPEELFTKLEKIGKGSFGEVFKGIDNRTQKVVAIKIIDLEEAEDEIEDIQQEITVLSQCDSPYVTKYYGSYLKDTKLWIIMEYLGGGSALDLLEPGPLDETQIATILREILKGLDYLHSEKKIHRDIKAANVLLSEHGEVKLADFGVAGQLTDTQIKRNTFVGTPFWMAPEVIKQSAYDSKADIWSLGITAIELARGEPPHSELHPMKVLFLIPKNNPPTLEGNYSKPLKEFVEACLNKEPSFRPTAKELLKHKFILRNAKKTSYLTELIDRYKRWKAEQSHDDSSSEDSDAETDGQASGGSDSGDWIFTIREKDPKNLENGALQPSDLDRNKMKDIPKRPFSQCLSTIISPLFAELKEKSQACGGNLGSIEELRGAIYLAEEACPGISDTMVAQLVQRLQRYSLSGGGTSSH
EGFR(L747-T751del, Sins), sequence (P00533 with tags, fused parts or gaps DEL747-750/T751S limits assumed): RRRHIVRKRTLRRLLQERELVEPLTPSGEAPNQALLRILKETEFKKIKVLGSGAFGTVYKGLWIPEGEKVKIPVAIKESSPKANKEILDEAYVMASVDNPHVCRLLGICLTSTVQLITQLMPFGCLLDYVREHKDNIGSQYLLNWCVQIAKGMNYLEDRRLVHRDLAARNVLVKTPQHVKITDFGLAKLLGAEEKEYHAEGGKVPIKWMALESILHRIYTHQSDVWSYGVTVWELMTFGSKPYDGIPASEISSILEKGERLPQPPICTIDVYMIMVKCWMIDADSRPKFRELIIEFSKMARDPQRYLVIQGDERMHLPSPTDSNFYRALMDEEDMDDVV
DDR1, sequence (Q08345 19-913): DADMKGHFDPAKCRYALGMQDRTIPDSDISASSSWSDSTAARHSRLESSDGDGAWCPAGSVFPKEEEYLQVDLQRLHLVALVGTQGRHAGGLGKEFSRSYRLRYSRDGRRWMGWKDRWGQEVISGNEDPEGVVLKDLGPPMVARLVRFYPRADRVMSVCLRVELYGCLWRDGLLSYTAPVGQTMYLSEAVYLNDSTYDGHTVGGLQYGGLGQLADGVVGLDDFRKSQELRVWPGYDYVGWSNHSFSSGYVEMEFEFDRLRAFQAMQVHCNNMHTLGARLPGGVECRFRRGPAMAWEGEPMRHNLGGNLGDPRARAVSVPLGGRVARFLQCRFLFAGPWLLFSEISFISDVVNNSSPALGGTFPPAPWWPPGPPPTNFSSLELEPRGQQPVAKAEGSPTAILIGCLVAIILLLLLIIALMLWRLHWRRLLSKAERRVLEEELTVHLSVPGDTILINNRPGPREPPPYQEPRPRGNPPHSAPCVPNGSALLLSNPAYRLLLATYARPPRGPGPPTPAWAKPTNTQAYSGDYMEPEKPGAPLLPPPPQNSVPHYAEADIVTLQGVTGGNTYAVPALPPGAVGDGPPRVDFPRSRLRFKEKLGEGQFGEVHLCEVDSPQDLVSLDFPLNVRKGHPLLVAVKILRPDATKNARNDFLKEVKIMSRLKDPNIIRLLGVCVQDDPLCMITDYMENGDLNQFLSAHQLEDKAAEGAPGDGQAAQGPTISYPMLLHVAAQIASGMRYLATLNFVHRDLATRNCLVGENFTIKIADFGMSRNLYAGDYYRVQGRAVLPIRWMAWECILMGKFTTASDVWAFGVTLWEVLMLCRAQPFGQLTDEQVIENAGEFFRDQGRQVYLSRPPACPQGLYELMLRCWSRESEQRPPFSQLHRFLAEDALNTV
T1 sequence (Q5S007 970-2527 limits assumed): as the sequence (Q5S007 970-2527 G2019S limits assumed) above, with S1050G counted along it

In the case of `CNc1c(-c2cnn([C@H]3CCN(C(C)=O)C[C@@H]3F)c2)cnc2[nH]cc(Cl)c12` [Compound 77, 1-((3S,4S)-4-(4-(3-chloro-4-(methylamino)-1H-pyrrolo[2,3-b]pyridin-5-yl)-1H-pyrazol-1-yl)-3-fluoropiperidin-1-yl)ethan-1-one], the IC50 in assay [1] and in assay [7] was 0.01 to 0.1 µM throughout. Further, the remaining binding at 1 µM came to 100% in assay [2]; 88% in assay [3]; 72% in [4]; 100% in assay [5]; 23% in [6].
For the compound `CNc1c(-c2ccc(C(=O)N3CCC(N4CCOCC4)CC3)cc2)cnc2[nH]cc(Cl)c12` [Compound 96, (4-(3-chloro-4-(methylamino)-1H-pyrrolo[2,3-b]pyridin-5-yl)phenyl)(4-morpholinopiperidin-1-yl)methanone], the IC50 in [1] was 0.01 to 0.1 µM; in assay [7], under 0.01 µM. The remaining binding at 1 µM in assay [2] amounted to 100%; in assay [3], 76%; in assay [4], 74%; in assay [5], 100%; in assay [6], 48%. Moreover, the “% control” value is 8.1% in assay [8], 3.6% in assay [9] and 0% in assay [10].
Regarding `O=C(c1ccc(-c2cnc3[nH]cc(Cl)c3c2NC2CCCC2)cc1)N1CCC(N2CCOCC2)CC1` [Compound 101, (4-(3-chloro-4-(cyclopentylamino)-1H-pyrrolo[2,3-b]pyridin-5-yl)phenyl)(4-morpholinopiperidin-1-yl)methanone], the remaining binding at 1 µM in assay [2] was determined as 61%; in assay [3] it was 100%; in assay [4], 86%; in assay [5] it was 93%; in assay [6], 100%. Further, the “% control” value in [8] worked out at 41%; in assay [9], 55%; in assay [10] it was 49%.

The values are drawn from US12275731B2, “Azaindole inhibitors of wild-type and mutant forms of LRRK2” (DANA-FARBER CANCER INSTITUTE, INC., priority 2018, dated 2025).
